From ChEMBL document CHEMBL4376806, “Antibiotic Adjuvants: Make Antibiotics Great Again!” (2019)
Each block holds one compound with its values, some of them ahead of it.

Experiments:
Assay type in all cases: functional
Pseudomonas aeruginosa [1] = assay: Potentiation of doxycycline-induced antibacterial activity against Pseudomonas aeruginosa PAO1 assessed as doxycycline MIC at 1.22 ug/ml by broth micro-dilution method (reference value: 32 ug/ml)
Pseudomonas aeruginosa [2] = assay: Synergistic antibacterial activity against Pseudomonas aeruginosa assessed as fractional inhibitory concentration index in presence of doxycycline after 18 hrs by checkerboard assay
Klebsiella aerogenes [3] = assay: Potentiation of doxycycline-induced antibacterial activity against Enterobacter aerogenes EA289 assessed as doxycycline MIC at 2.5 uM after 18 hrs (reference value: 40 ug/ml); conditions: EA289, 18 h
Pseudomonas aeruginosa [4] = assay: Potentiation of doxycycline-induced antibacterial activity against Pseudomonas aeruginosa PAO1 assessed as doxycycline MIC at 2.5 uM after 18 hrs (reference value: 20 ug/ml); conditions: PAO1, 18 h
Klebsiella pneumoniae = assay: Potentiation of doxycycline-induced antibacterial activity against Klebsiella pneumoniae KPC2 assessed as doxycycline MIC at 2.5 uM after 18 hrs (reference value: 10 ug/ml); conditions: KPC2, 18 h
Escherichia coli [5] = assay: Potentiation of tetracycline-induced antibacterial activity against Escherichia coli AG100 assessed as tetracycline MIC at 0.4 ug/ml after 18 hrs (reference value: 2 ug/ml); conditions: AG100, 18 h
Klebsiella aerogenes [6] = assay: Potentiation of ciprofloxacin-induced antibacterial activity against Enterobacter aerogenes ATCC 13048 assessed as ciprofloxacin MIC at 1.6 ug/ml after 18 hrs (reference value: 0.5 ug/ml); conditions: ATCC 13048, 18 h
Escherichia coli [7] = assay: Potentiation of cefepime-induced antibacterial activity against Escherichia coli AG100 assessed as cefepime MIC at 0.4 ug/ml after 18 hrs (reference value: 0.5 ug/ml); conditions: AG100, 18 h
Pseudomonas aeruginosa [8] = assay: Potentiation of cefepime-induced antibacterial activity against Pseudomonas aeruginosa PAO1 assessed as cefepime MIC at 3.2 ug/ml after 18 hrs (reference value: 8 ug/ml); conditions: PAO1, 18 h
Pseudomonas aeruginosa [9] = assay: Potentiation of tetracycline-induced antibacterial activity against Pseudomonas aeruginosa PAO1 assessed as tetracycline MIC at 3.2 ug/ml after 18 hrs (reference value: 16 ug/ml); conditions: PAO1, 18 h
Klebsiella aerogenes [10] = assay: Potentiation of cefepime-induced antibacterial activity against Enterobacter aerogenes ATCC 13048 assessed as cefepime MIC at 1.6 ug/ml after 18 hrs (reference value: 0.25 ug/ml); conditions: ATCC 13048, 18 h
Klebsiella aerogenes [11] = assay: Potentiation of chloramphenicol-induced antibacterial activity against Enterobacter aerogenes ATCC 13048 assessed as chloramphenicol MIC at 1.6 ug/ml after 18 hrs (reference value: 4 ug/ml); conditions: ATCC 13048, 18 h
Escherichia coli [12] = assay: Potentiation of chloramphenicol-induced antibacterial activity against Escherichia coli AG100 assessed as chloramphenicol MIC at 0.4 ug/ml after 18 hrs (reference value: 8 ug/ml); conditions: AG100, 18 h
Klebsiella aerogenes [13] = assay: Potentiation of erythromycin-induced antibacterial activity against Enterobacter aerogenes ATCC 13048 assessed as erythromycin MIC at 1.6 ug/ml after 18 hrs (reference value: 512 ug/ml); conditions: ATCC 13048, 18 h
Escherichia coli [14] = assay: Potentiation of erythromycin-induced antibacterial activity against Escherichia coli AG100 assessed as erythromycin MIC at 0.4 ug/ml after 18 hrs (reference value: 512 ug/ml); conditions: AG100, 18 h
Pseudomonas aeruginosa [15] = assay: Potentiation of chloramphenicol-induced antibacterial activity against Pseudomonas aeruginosa PAO1 assessed as chloramphenicol MIC at 3.2 ug/ml after 18 hrs (reference value: 512 ug/ml); conditions: PAO1, 18 h
Pseudomonas aeruginosa [16] = assay: Potentiation of ciprofloxacin-induced antibacterial activity against Pseudomonas aeruginosa PAO1 assessed as ciprofloxacin MIC at 3.2 ug/ml after 18 hrs (reference value: 16 ug/ml); conditions: PAO1, 18 h
Klebsiella aerogenes [17] = assay: Potentiation of tetracycline-induced antibacterial activity against Enterobacter aerogenes ATCC 13048 assessed as tetracycline MIC at 1.6 ug/ml after 18 hrs (reference value: 2 ug/ml); conditions: ATCC 13048, 18 h
Pseudomonas aeruginosa [18] = assay: Potentiation of erythromycin-induced antibacterial activity against Pseudomonas aeruginosa PAO1 assessed as erythromycin MIC at 3.2 ug/ml after 18 hrs (reference value: 512 ug/ml); conditions: PAO1, 18 h
Escherichia coli [19] = assay: Potentiation of ciprofloxacin-induced antibacterial activity against Escherichia coli AG100 assessed as ciprofloxacin MIC at 0.4 ug/ml after 18 hrs (reference value: 0.25 ug/ml); conditions: AG100, 18 h
Pseudomonas aeruginosa [20] = assay: Potentiation of doxycycline-induced antibacterial activity against Pseudomonas aeruginosa PAO1 assessed as doxycycline MIC at 2 ug/ml after 24 hrs by broth microdilution method (reference value: 16 ug/ml); conditions: PAO1, 24 h
Klebsiella aerogenes [21] = assay: Potentiation of doxycycline-induced antibacterial activity against Enterobacter aerogenes EA289 assessed as doxycycline MIC at 2 ug/ml after 24 hrs by broth microdilution method (reference value: 40 ug/ml); conditions: EA289, 24 h
Escherichia coli [22] = assay: Potentiation of novobiocin-induced antibacterial activity against Escherichia coli W3110 assessed as novobiocin MIC at 8 ug/ml after 20 hrs by liquid microdilution method (reference value: 128 ug/ml); conditions: K-12 substr. W3110, 20 h
Escherichia coli [23] = assay: Potentiation of erythromycin-induced antibacterial activity against Escherichia coli W3110 assessed as erythromycin MIC at 8 ug/ml after 20 hrs by liquid microdilution method (reference value: 64 ug/ml); conditions: K-12 substr. W3110, 20 h
Klebsiella aerogenes [24] = assay: Potentiation of doxycycline-induced antibacterial activity against Enterobacter aerogenes EA289 assessed as doxycycline MIC at 5 uM after 18 hrs (reference value: 40 ug/ml); conditions: EA289, 18 h
Pseudomonas aeruginosa [25] = assay: Potentiation of doxycycline-induced antibacterial activity against Pseudomonas aeruginosa PAO1 assessed as doxycycline MIC at 1.25 uM after 18 hrs (reference value: 20 ug/ml); conditions: PAO1, 18 h

MIC (Pseudomonas aeruginosa [1]): 2 µg/mL
SMILES: CC(C)=C/C=C\C(C)=C/CC/C(C)=C/CNCCCNCCCCNCCCN.Cl.Cl.Cl.Cl
fractional inhibitory concentration index (FICI) (Pseudomonas aeruginosa [2]): 0.09

MIC (Escherichia coli [5]): 0.125 µg/mL
MIC (Klebsiella aerogenes [6]): 0.015 µg/mL
MIC (Escherichia coli [7]): 0.06 µg/mL
MIC (Pseudomonas aeruginosa [8]): 1 µg/mL
MIC (Pseudomonas aeruginosa [9]): 4 µg/mL
MIC (Klebsiella aerogenes [10]): 0.03 µg/mL
MIC (Klebsiella aerogenes [11]): 0.25 µg/mL
MIC (Escherichia coli [12]): 0.5 µg/mL
MIC (Klebsiella aerogenes [13]): 128 µg/mL
MIC (Escherichia coli [14]): 256 µg/mL
MIC (Pseudomonas aeruginosa [15]): 16 µg/mL
MIC (Pseudomonas aeruginosa [16]): < 1 µg/mL
MIC (Klebsiella aerogenes [17]): 0.25 µg/mL
MIC (Pseudomonas aeruginosa [18]): 256 µg/mL
MIC (Escherichia coli [19]): 0.03 µg/mL
SMILES: CC(C)[C@@H](CC[C@@H](C)[C@H]1CC[C@H]2[C@@H]3[C@H](O)C[C@H]4C[C@@H](NCCCNCCCCN)CC[C@]4(C)[C@H]3CC[C@]12C)OS(=O)(=O)O [SQUALAMINE]

MIC (Pseudomonas aeruginosa [20]): 2 µg/mL
MIC (Klebsiella aerogenes [21]): 0.5 µg/mL
SMILES: CC(C)OC(=O)CC[C@@H](C)[C@H]1CC[C@H]2[C@@H]3CC[C@H]4C[C@@H](NCCCNCCCNCCCCNCCCN)CC[C@]4(C)[C@H]3C[C@H](O)[C@]12C

The remaining lines, values behind:

SMILES: Cl.Cl.Cl.NCCCNCCCNC1CCCCCCCCCCCCCC1
MIC (Klebsiella aerogenes [3]): 2 µg/mL
MIC (Pseudomonas aeruginosa [4]): 2 µg/mL
MIC (Klebsiella pneumoniae): 2 µg/mL

SMILES: COc1ccccc1CNCCCCCCNCCCCCCCCNCCCCCCNCc1ccccc1OC [METHOCTRAMINE]
MIC (Escherichia coli [22]): 16 µg/mL
MIC (Escherichia coli [23]): 16 µg/mL

SMILES: Cl.Cl.Cl.NCCCCNCCCCNC1CCCCCCCCCCCCCC1
MIC (Klebsiella aerogenes [24]): 2 µg/mL
MIC (Pseudomonas aeruginosa [25]): 2 µg/mL
MIC (Klebsiella pneumoniae): 2 µg/mL
